Assay results reported in article PMC3365113, “Exploiting Ligand-Protein Conjugates to Monitor Ligand-Receptor Interactions” (PLoS ONE, 2012).
Each block holds one molecule with its values, some of them ahead of it.

How the values were obtained:
SNAP-eDHFR WT [1] = biological target: T1, SNAP-eDHFR WT (Escherichia coli, UniProt P0ABQ4); assay: biochemical; assay type: binding
SNAP-eDHFR L54I = SNAP-eDHFR L54I (Escherichia coli, UniProt P0ABQ4, L54I); assay: biochemical; assay type: binding
SNAP-eDHFR L54G = SNAP-eDHFR L54G (Escherichia coli, UniProt P0ABQ4, L54G); assay: biochemical; assay type: binding
SNAP-eDHFR WT [2] = biological target: T1, SNAP-eDHFR WT; assay: biochemical
PDE6D = biological target: T2, PDE6D (Homo sapiens, UniProt O43924); assay: Cell imaging assay in fixed U2OS cells; assay type: binding; settings: 100 nM atorvastatin-SNAP-EGFP
T2 construct: expressed in transfected cells; host or cells: U2OS
Source text: (§1) Finally, we developed a binding assay applicable to fixed cells. Such an assay is desirable if the protein to be analyzed is insoluble or unstable in extracts. In this assay (Figure 1B, 7A), the epitope-tagged receptor protein is over-expressed in mammalian cells by transient transfection. The cells are fixed with paraformaldehyde and permeabilized with nonionic detergent. The expression of the receptor protein is then confirmed by visualization with the anti-epitope tag antibody conjugated with a fluorophore using immunofluorescence microscopy. In parallel, the ligand-protein interaction is examined with the aid of BG-derivatized ligand conjugated to EGFP via SNAP-tag. […] We evaluated the generality of this method using other previously validated drug-protein interactions (PDE6D-atorvastatin, PTK2B-purvalanol B, and FYN-dasatinib). Binding of all three pairs was detected with this method (Figure S3).
(§2) Supplementary file pone.0037598.s003.tif: Figure S3 Cell imaging assay using validated drug-receptor pairs. (A) U2OS cells were transfected with a plasmid which express V5 tagged PDE6D. One day after transfection, cells were fixed with 4% paraformaldehyde, and permeabilized with 0.1% Tritin X-100. After washing, the cells were incubated with anti-V5-antibody conjugated with FITC or 100 nM atorvastatin-SNAP-EGFP. Fluorescence images (GFP filter) were taken within 30 min after washing of the cells. (B) (C) Cell imaging assay using pairs of purvalanol B-PTK2B and dasatinib-FYN, respectively. (TIF) Click here for additional data file.

FYN = biological target: T3, FYN (Homo sapiens, UniProt P06241); assay: Cell imaging assay in fixed U2OS cells; assay type: binding; settings: ligand as SNAP-EGFP conjugate
T3 construct: expressed in transfected cells; host or cells: U2OS
Source text: as §1, §2

SNAP-ORP7 = biological target: T4, SNAP-ORP7 (Homo sapiens, UniProt Q9BZF2); assay type: binding; settings: HEK293 cell extract, free erlotinib 10 µM
T4 construct: strep-tag (N); made in house; host or cells: HEK293 (suspension HEK-293E), transient transfection, Strep-tactin purified
T4 sequence (Q9BZF2 1-842): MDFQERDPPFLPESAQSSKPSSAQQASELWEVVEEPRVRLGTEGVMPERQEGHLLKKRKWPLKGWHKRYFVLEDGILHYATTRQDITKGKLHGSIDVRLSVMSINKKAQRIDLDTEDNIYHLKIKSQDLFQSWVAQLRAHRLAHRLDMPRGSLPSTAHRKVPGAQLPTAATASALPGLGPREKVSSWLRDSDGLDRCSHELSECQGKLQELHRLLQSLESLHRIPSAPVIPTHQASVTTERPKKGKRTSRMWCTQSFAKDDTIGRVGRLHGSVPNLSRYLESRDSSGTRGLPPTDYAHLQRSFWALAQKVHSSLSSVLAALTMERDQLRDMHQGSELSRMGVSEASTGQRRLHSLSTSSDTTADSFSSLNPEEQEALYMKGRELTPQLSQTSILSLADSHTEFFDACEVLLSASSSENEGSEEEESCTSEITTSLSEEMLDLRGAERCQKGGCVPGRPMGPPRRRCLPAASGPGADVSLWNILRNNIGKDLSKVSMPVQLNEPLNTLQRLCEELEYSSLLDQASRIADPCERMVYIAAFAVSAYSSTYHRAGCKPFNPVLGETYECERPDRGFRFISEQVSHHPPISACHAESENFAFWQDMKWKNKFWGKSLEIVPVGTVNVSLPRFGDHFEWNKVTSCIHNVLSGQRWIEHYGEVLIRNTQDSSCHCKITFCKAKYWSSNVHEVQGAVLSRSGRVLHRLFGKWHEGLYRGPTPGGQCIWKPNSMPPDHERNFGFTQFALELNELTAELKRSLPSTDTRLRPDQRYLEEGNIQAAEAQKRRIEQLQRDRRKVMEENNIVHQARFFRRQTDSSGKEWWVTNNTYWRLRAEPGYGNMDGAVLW

PTK2B = biological target: T5, PTK2B (Homo sapiens, UniProt Q14289); assay: Cell imaging assay in fixed U2OS cells; assay type: binding; settings: ligand as SNAP-EGFP conjugate
T5 construct: expressed in transfected cells; host or cells: U2OS
Source text: as §1, §2

[3] = system: eDHFR (every eDHFR mutant); assay: SNAP-based TR-FRET competition assay using MTX and MTX-BG as competitors; assay type: binding, Escherichia coli; settings: MTX-BG vs MTX, 100 µM NADPH

Molecule: COc1cc(NCc2ccc3nc(N)nc(N)c3c2C)cc(OC)c1OC [Trimetrexate, trimetrexate]
- Kd (SNAP-eDHFR WT [1]): 0.00015 ± 1e-05 µM
- Kd (SNAP-eDHFR L54I): 0.0001 ± 1e-05 µM
- Kd (SNAP-eDHFR L54G): 0.00064 ± 4e-05 µM
- IC50 (SNAP-eDHFR WT [2]): 0.00027 ± 3e-05 µM

Molecule: CC1(C)N=C(N)N=C(N)N1OCCCOc1cc(Cl)c(Cl)cc1Cl [WR99210]
- Kd (SNAP-eDHFR WT [1]): 12 ± 0.95 µM
- Kd (SNAP-eDHFR L54I): 2.6 ± 0.21 µM
- Kd (SNAP-eDHFR L54G): 15 ± 0.79 µM
- IC50 (SNAP-eDHFR WT [2]): 54 ± 16 µM

- Binding detected by cell imaging, PDE6D (PDE6D): detected
Molecule: CC(C)c1c(C(=O)Nc2ccccc2)c(-c2ccccc2)c(-c2ccc(F)cc2)n1CC[C@@H](O)C[C@@H](O)CC(=O)O [atorvastatin]

- Binding detected by cell imaging, FYN (FYN): detected
Molecule: Cc1nc(Nc2ncc(C(=O)Nc3c(C)cccc3Cl)s2)cc(N2CCN(CCO)CC2)n1 [dasatinib]

- Effect of free ligand on hetero-crosslinking product band (SNAP-ORP7): no longer detected
Molecule: C#Cc1cccc(Nc2ncnc3cc(OCCOC)c(OCCOC)cc23)c1 [erlotinib]

- Binding detected by cell imaging, PTK2B (PTK2B): detected
Molecule: CC(C)[C@H](CO)Nc1nc(Nc2ccc(C(=O)O)c(Cl)c2)c2ncn(C(C)C)c2n1 [purvalanol B]

Molecule: methotrexate-BG [MTX-BG]
- Change of Kd values by derivatization of MTX with BG [3]: about 10 fold
